From patent publication US10940139B2, “Compounds that interact with the Ras superfamily for the treatment of cancers, inflammatory diseases, rasopathies, and fibrotic disease” (Shy Therapeutics LLC, priority 2017, dated 2021)

Tests used:
Test in all cases: Ras GTP binding domain inhibition assay (labeled GTP)
KRas G12D mutant protein = KRas G12D mutant protein (Homo sapiens (Human), UniProt P01116, G12D); settings: 20 μM compound, KRas G12D; for inhibition at 20 µM: read-out: % Inhibition at 20 μM of K-Ras mutant and wild-type protein, KRas G12D
KRas wild type = KRas wild type (Homo sapiens (Human), UniProt P01116); settings: 20 μM compound, KRas wild type; for inhibition at 20 µM: read-out: % Inhibition at 20 μM of K-Ras mutant and wild-type protein, KRas wild type
Summary of the method: (§1)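 Fluorescence read-out of Cy3-/Cy5-GTP remaining bound to nickel-immobilized His-KRas after washes. Protein was coated overnight at 4° C, then exposed to compound for 3 h at room temperature before a 45 min labeled-GTP incubation.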

KRas G12C mutant = KRas G12C mutant (Homo sapiens (Human), UniProt P01116, G12C); settings: 20 μM compound, KRas G12C; for inhibition at 20 µM: read-out: % Inhibition at 20 μM of K-Ras mutant and wild-type protein, KRas G12C
Summary of the method: as §1

KRas Q61H mutant = KRas Q61H mutant (Homo sapiens (Human), UniProt P01116, Q61H); settings: 20 μM compound, KRas Q61H; for inhibition at 20 µM: read-out: % Inhibition at 20 μM of K-Ras mutant and wild-type protein, KRas Q61H
Summary of the method: as §1

[1] = molecular target: KRas G12D/Q61H double mutant (Homo sapiens (Human), UniProt P01116, G12D/Q61H); settings: 20 μM compound, KRas G12D/Q61H double mutant; for inhibition at 20 µM: read-out: % Inhibition at 20 μM of K-Ras mutant and wild-type protein, KRas G12D Q61H
Summary of the method: as §1

[2] = molecular target: KRas G12C/Q61H double mutant (Homo sapiens (Human), UniProt P01116, G12C/Q61H); settings: 20 μM compound, KRas G12C/Q61H double mutant; for inhibition at 20 µM: read-out: % Inhibition at 20 μM of K-Ras mutant and wild-type protein, KRas G12C Q61H
Summary of the method: as §1

Sequence of KRas G12C mutant (P01116-2 other isoform, or with tags, fused parts or gaps G12C): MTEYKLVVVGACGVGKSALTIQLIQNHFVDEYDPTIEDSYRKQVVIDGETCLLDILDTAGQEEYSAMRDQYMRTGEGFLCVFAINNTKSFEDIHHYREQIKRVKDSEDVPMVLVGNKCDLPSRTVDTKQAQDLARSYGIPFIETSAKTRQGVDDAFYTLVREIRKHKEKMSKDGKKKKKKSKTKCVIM
Sequence of KRas G12D/Q61H double mutant (P01116-2 other isoform, or with tags, fused parts or gaps G12D/Q61H): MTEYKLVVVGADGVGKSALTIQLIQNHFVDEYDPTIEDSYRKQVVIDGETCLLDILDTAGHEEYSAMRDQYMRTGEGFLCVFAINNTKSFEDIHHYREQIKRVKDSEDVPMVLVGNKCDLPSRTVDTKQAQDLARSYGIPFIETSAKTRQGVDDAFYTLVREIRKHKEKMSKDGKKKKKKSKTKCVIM
Sequence of KRas G12C/Q61H double mutant (P01116-2 other isoform, or with tags, fused parts or gaps G12C/Q61H): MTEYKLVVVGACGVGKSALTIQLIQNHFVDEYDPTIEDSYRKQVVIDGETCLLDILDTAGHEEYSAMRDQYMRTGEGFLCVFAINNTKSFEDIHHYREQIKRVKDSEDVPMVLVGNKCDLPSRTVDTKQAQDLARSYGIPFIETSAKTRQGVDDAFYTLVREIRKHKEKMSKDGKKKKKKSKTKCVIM
Sequence of KRas Q61H mutant (P01116-2 other isoform, or with tags, fused parts or gaps Q61H): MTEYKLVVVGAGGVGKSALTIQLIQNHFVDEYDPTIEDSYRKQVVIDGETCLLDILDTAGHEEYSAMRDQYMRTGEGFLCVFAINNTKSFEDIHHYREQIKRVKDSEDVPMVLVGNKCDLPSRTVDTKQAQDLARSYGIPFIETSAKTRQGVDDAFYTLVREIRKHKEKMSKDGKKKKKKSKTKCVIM
Sequence of KRas wild type (P01116-2 other isoform, or with tags, fused parts or gaps): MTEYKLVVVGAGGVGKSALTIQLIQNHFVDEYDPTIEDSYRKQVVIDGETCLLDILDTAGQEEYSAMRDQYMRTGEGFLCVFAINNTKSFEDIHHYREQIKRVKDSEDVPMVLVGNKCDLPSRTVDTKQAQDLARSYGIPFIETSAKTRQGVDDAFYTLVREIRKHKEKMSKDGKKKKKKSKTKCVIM
Sequence of KRas G12D mutant protein (P01116-2 other isoform, or with tags, fused parts or gaps G12D): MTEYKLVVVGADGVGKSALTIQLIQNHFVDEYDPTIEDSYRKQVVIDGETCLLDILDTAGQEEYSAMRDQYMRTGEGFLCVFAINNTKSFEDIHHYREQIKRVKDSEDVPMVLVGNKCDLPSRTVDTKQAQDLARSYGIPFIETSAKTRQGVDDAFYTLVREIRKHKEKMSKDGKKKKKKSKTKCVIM

Row | Structure (SMILES) | inhibition at 20 µM (KRas G12D mutant protein) [%] | inhibition at 20 µM (KRas wild type) [%] | inhibition at 20 µM (KRas G12C mutant) [%] | inhibition at 20 µM (KRas Q61H mutant) [%] | inhibition at 20 µM [1] [%] | inhibition at 20 µM [2] [%] | % Inhibition at 20 μM of K-Ras mutant and wild-type protein, KRas G12D (KRas G12D mutant protein) | % Inhibition at 20 μM of K-Ras mutant and wild-type protein, KRas wild type (KRas wild type) | % Inhibition at 20 μM of K-Ras mutant and wild-type protein, KRas G12C (KRas G12C mutant) | % Inhibition at 20 μM of K-Ras mutant and wild-type protein, KRas Q61H (KRas Q61H mutant) | % Inhibition at 20 μM of K-Ras mutant and wild-type protein, KRas G12D Q61H [1] | % Inhibition at 20 μM of K-Ras mutant and wild-type protein, KRas G12C Q61H [2]
1 | COc1cnc(-c2ccccn2)nc1O [drawing 3469] | 51 to 75 | 25 to 50 | 76 to 100 | 51 to 75 | 51 to 75 | 76 to 100 |  |  |  |  |  | 
2 | COc1nc(-c2ccccn2)nc2c(C3CCCC3)csc12 [drawing 3470] | 25 to 50 | 25 to 50 | 25 to 50 | 76 to 100 | 51 to 75 | 51 to 75 |  |  |  |  |  | 
3 | CCC(C)c1csc2c(OC)nc(-c3ccccn3)nc12 (stereo not drawn) [drawing 3471] | 25 to 50 | 25 to 50 | 25 to 50 | 51 to 75 | 51 to 75 | 51 to 75 |  |  |  |  |  | 
4 | Cc1c(C(=O)O)sc2c(O)nc(-c3ccccn3)nc12 [drawing 3475] | 25 to 50 | 1 to 25 | 1 to 25 | 51 to 75 | 51 to 75 | 51 to 75 |  |  |  |  |  | 
5 | Oc1nc(-c2ccccn2)nc2c(C3CCC3)csc12 [drawing 3478] | 51 to 75 | 25 to 50 | 25 to 50 | 51 to 75 | 51 to 75 | 51 to 75 |  |  |  |  |  | 
6 | COc1nc(-c2ccccn2)nc2c(C3CCC3)csc12 [drawing 3480] | 1 to 25 | 1 to 25 | 25 to 50 | 76 to 100 | 51 to 75 | 51 to 75 |  |  |  |  |  | 
7 | CC(C)Oc1cnc(-c2ccccn2)nc1O [drawing 3481] | 51 to 75 | 25 to 50 | 51 to 75 | 51 to 75 | 51 to 75 | 76 to 100 |  |  |  |  |  | 
8 | CC(C)c1csc2c(O)nc(-c3ccccn3)nc12 [drawing 3487] | 51 to 75 | 51 to 75 | 51 to 75 | 51 to 75 | 51 to 75 | 51 to 75 |  |  |  |  |  | 
9 | CN(C)CCOc1cccc(-c2csc3c(O)nc(-c4ccccn4)nc23)c1 [drawing 3492] | 76 to 100 | 51 to 75 | 51 to 75 | 76 to 100 | 76 to 100 | 76 to 100 |  |  |  |  |  | 
10 | COc1ccc(CCC(=O)Nc2nc(-c3ccccn3)nc3sccc23)cn1 [drawing 3493] | 51 to 75 | 25 to 50 | 25 to 50 | 76 to 100 | 51 to 75 | 51 to 75 |  |  |  |  |  | 
11 | CC(C)Cc1csc2c(O)nc(-c3ccccn3)nc12 [drawing 3494] | 51 to 75 | 25 to 50 | 25 to 50 | 76 to 100 | 51 to 75 | 51 to 75 |  |  |  |  |  | 
12 | Oc1nc(-c2ccccn2)nc2c(C3CCCC3)csc12 [drawing 3495] | 51 to 75 | 25 to 50 | 25 to 50 | 51 to 75 | 51 to 75 | 51 to 75 |  |  |  |  |  | 
13 | COc1cnc(-c2cn(C)cn2)nc1O [drawing 3496] | 51 to 75 | 25 to 50 | 51 to 75 | 76 to 100 | 51 to 75 | 51 to 75 |  |  |  |  |  | 
14 | Cc1sc2c(O)nc(-c3ccccn3)nc2c1-c1ccncc1 [drawing 3497] | 51 to 75 | 1 to 25 | 25 to 50 | 51 to 75 | 51 to 75 | 25 to 50 |  |  |  |  |  | 
15 | Oc1cccc(-c2csc3c(O)nc(-c4ccccn4)nc23)n1 [drawing 3498] | 25 to 50 | 51 to 75 | 25 to 50 | 76 to 100 | 51 to 75 | 51 to 75 |  |  |  |  |  | 
16 | Oc1nc(-c2ccccn2)nc2c(-c3cc(CN4CCCC4)ccc3F)csc12 [drawing 3502] | 76 to 100 | 25 to 50 | 51 to 75 | 76 to 100 | 51 to 75 | 51 to 75 |  |  |  |  |  | 

Row | Structure (SMILES) | inhibition at 20 µM (KRas G12D mutant protein) [%] | inhibition at 20 µM (KRas wild type) [%] | inhibition at 20 µM (KRas G12C mutant) [%] | inhibition at 20 µM (KRas Q61H mutant) [%] | inhibition at 20 µM [1] [%] | inhibition at 20 µM [2] [%] | % Inhibition at 20 μM of K-Ras mutant and wild-type protein, KRas G12D (KRas G12D mutant protein) | % Inhibition at 20 μM of K-Ras mutant and wild-type protein, KRas wild type (KRas wild type) | % Inhibition at 20 μM of K-Ras mutant and wild-type protein, KRas G12C (KRas G12C mutant) | % Inhibition at 20 μM of K-Ras mutant and wild-type protein, KRas Q61H (KRas Q61H mutant) | % Inhibition at 20 μM of K-Ras mutant and wild-type protein, KRas G12D Q61H [1] | % Inhibition at 20 μM of K-Ras mutant and wild-type protein, KRas G12C Q61H [2]
17 | Cc1nn(C(C)C)cc1-c1csc2c(O)nc(-c3ccccn3)nc12 [drawing 3506] | 51 to 75 | 25 to 50 | 25 to 50 | 51 to 75 | 51 to 75 | 51 to 75 |  |  |  |  |  | 
18 | Cc1sc2c(O)nc(-c3ccccn3)nc2c1C(=O)N1CCN(c2ccccc2)CC1C (stereo not drawn) [drawing 3509] | 51 to 75 | 25 to 50 | 51 to 75 | 51 to 75 | 51 to 75 | 51 to 75 |  |  |  |  |  | 
19 | Cc1sc2c(O)nc(-c3ccccn3)nc2c1C(=O)N1CCN(Cc2cccc(O)c2)CC1 [drawing 3510] | 25 to 50 | 1 to 25 | 1 to 25 | 51 to 75 | 51 to 75 | 51 to 75 |  |  |  |  |  | 
20 | COc1cnc(-c2cn(C)cn2)nc1O [drawing 3512] |  |  |  |  |  |  | C (51-75% inhibition) | B (25-50% inhibition) | C (51-75% inhibition) | D (76-100% inhibition) | C (51-75% inhibition) | C (51-75% inhibition)
21 | COc1cnc(-c2nccn2C)nc1O [drawing 3513] | 76 to 100 | 51 to 75 | 51 to 75 | 76 to 100 | 76 to 100 | 76 to 100 |  |  |  |  |  | 
22 | Nc1cccc(-c2csc3c(O)nc(-c4ccccn4)nc23)n1 [drawing 3514] | 51 to 75 | 51 to 75 | 25 to 50 | 76 to 100 | 51 to 75 | 51 to 75 |  |  |  |  |  | 
23 | Cc1sc2c(O)nc(-c3ccccn3)nc2c1-c1ccccc1Cl [drawing 3515] | 51 to 75 | 1 to 25 | 1 to 25 | 76 to 100 | 51 to 75 | 51 to 75 |  |  |  |  |  | 
24 | COc1cnc(-c2cnc[nH]2)nc1O [drawing 3516] | 51 to 75 | 51 to 75 | 51 to 75 | 51 to 75 | 51 to 75 | 51 to 75 |  |  |  |  |  | 
25 | Oc1nc(-c2ccccn2)nc2c(C3CC3)csc12 [drawing 3518] | 51 to 75 | 25 to 50 | 25 to 50 | 25 to 50 | 25 to 50 | 1 to 25 |  |  |  |  |  | 
26 | Oc1nc(-c2ccccn2)nc2c(CC3CCNC3)csc12 (stereo not drawn) [drawing 3526] | 51 to 75 | 25 to 50 | 51 to 75 | 51 to 75 | 51 to 75 | 51 to 75 |  |  |  |  |  | 
27 | O=c1[nH]c(-c2ccccn2)nc2c([C@@H]3O[C@H](CO)[C@@H](O)[C@H]3O)csc12 [drawing 3527] | 25 to 50 | 25 to 50 | 51 to 75 | 51 to 75 | 25 to 50 | 25 to 50 |  |  |  |  |  | 
28 | COCCNc1nc(-c2cn(C)cn2)nc2sc(-c3ccncc3)c(-c3ccccc3)c12 [drawing 3530] | 51 to 75 | 51 to 75 | 51 to 75 | 76 to 100 | 76 to 100 | 51 to 75 |  |  |  |  |  | 
29 | COc1nc(-c2cn(C)cn2)nc2sc(-c3ccncc3)c(-c3ccccc3)c12 [drawing 3531] | 25 to 50 | 1 to 25 | 25 to 50 | 25 to 50 | 25 to 50 | 1 to 25 |  |  |  |  |  | 
30 | COc1ccc(COC[C@H]2O[C@@H](c3csc4c(=O)[nH]c(-c5ccccn5)nc34)[C@H](O)[C@@H]2O)cc1 [drawing 3533] | 25 to 50 | 1 to 25 | 25 to 50 | 51 to 75 | 25 to 50 | 51 to 75 |  |  |  |  |  | 
31 | OCC1(c2ccc(-c3nc(-c4ccccn4)nc(O)c3Oc3ccccc3)cc2)CC1 [drawing 3534] | 25 to 50 | 1 to 25 | 51 to 75 | 76 to 100 | 51 to 75 | 76 to 100 |  |  |  |  |  | 
